Earlier results, collected in patent publication US7491312B2, “Identifying therapeutic compounds based on their physical-chemical properties” (Edison Pharmaceuticals, Inc., priority 2002, dated 2009).

Target: amyloid-β fibril formation (Homo sapiens, UniProt P05067)
Details: compounds with an apomorphine core structure (FIG. 8)

amyloid-β fibril formation, sequence (P05067 672-711 limits assumed): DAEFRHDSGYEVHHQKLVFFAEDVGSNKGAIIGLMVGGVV

| SMILES | reduction of fibril growth |
| --- | --- |
| COc1ccc2c(c1O)-c1cccc3c1C(C2)N(C)CC3 (centres unmarked) [apocodeine] | 5% |
| CN1CCc2cccc3c2[C@H]1Cc1ccc(O)c(O)c1-3 [apomorphine] | 99% |
